Data: a melting point compilation (Tetko et al.; mined from patent text by program, amines drawn as free bases though some values may be those of a salt)

SMILES	melting point
Cc1cc(-n2ccnc2)c2cccc(OCc3c(Cl)ccc(S(=O)(=O)N4CCCC4C(=O)NCC4CCCCN4C(=O)CC(=O)O)c3Cl)c2n1 (centres undefined)	130 °C
COc1ccc(-n2cc(C3(O)CN4CCC3CC4)nn2)cc1 (centres undefined)	174 °C
CC(C)Oc1cc(NC(=O)C2=C(C(=O)N(C)C)CCCC2)ccc1Br	137 to 138 °C
Cc1sc(-c2ccc(F)cc2)nc1O	173 to 174 °C
CC(C)(C#N)c1cc(C(=O)c2cccnc2)cc(C(C)(C)C#N)c1	87 to 89 °C
CC(C)c1cccc(C(C)C)c1NC(=O)CN1CN(c2ccccc2)C2(CCCCC2)C1=O	251 to 253 °C
O=C(O)c1cn(CCO)nc1[N+](=O)[O-]	147 to 149 °C
C=CCOc1ccc(C[C@H](NC(=O)OC(C)(C)C)C(=O)N[C@H](C(=O)N[C@@H](CC=C)C(=O)OC)C(C)C)cc1	106 to 108 °C
O=C(NCCO)c1cccc(-c2cccc3cc(Cc4cccc(F)c4)oc23)c1	159 to 160 °C
COc1ccc(-c2nnc(C)n2-c2ccccc2)cc1	140 to 141 °C
O=C1c2ccc(N3CCCC3)c3cc(Br)cc(c23)C(=O)N1O	234 to 235 °C
C[Si](C)(C)c1ccc(-c2ccc(Br)cc2F)c(F)c1F	78 °C
CC(C)(C)C(NC(=O)c1ccccc1)NC(=S)Nc1cccnc1 (centres undefined)	193 to 194 °C
COc1ccc(-c2cc(=O)n(CCc3ccc(OC)c(OC)c3)nc2-c2ccc(OC)cc2)cc1	131 °C
O=C1Cc2cc(OCc3ccc4ccccc4n3)ccc2N1c1ccccc1	148 to 149 °C
CCCCCCOc1ccc(-c2cc(CO)ccc2CO)cc1	72.5 to 74 °C
CCOC(=O)c1nc2c(C(=O)OCC)cccn2c1[N+](=O)[O-]	139 to 140 °C
CN1CCN(S(=O)(=O)c2ccccc2NC(=O)N[C@@H](Cc2ccc(NC(=O)c3c(Cl)cncc3Cl)cc2)C(=O)O)CC1	189 °C
COc1cc2[nH]c(C)c(C(=O)C(=O)N3CCC(Oc4ccc(C(F)(F)F)cc4)CC3)c2cc1OC	211 to 213 °C
COC(=O)NC1CCc2sc(C3=NNC(=O)CC3)cc2C1 (centres undefined)	205 to 206 °C
Nc1nc2cc[nH]c2c(=O)[nH]1	> 300 °C
Cc1nc2c(c(=O)[nH]1)-c1ccc(Cl)cc1C(c1ccccc1F)=NC2	262 to 264 °C
CC(=O)NC[C@H]1CN(c2ccc(C(=O)c3cnc4c([N+](=O)[O-])cccn34)cc2)C(=O)O1	229 to 230 °C
CCn1cc(C(=O)O)c(=O)cc1-c1ccc(N(C)C)c(C)c1	160 to 162 °C
CC(C)(C)OC(=O)N1CCC2(CC1)C(=O)Nc1ccccc12	138 to 140 °C

SMILES	melting point
C=CCC1(C(C)CC(=O)O)C(=O)NC(=O)NC1=O (centres undefined)	200 °C
C[C@@H]1N(c2ccc(C#N)c(C(F)(F)F)c2)C(=O)C[C@]1(C)O	134 to 137 °C
CNc1nnc(-c2cccc(F)c2)c(=O)n1NC	173 to 174 °C
COc1cc(N2CCC(N(C)C)C2)ccc1Nc1ncc2ccc(-c3ccccc3OC)n2n1 (centres undefined)	70 to 78 °C
Cc1ccc(S(=O)(=O)OCCc2c(C)nc3cc(C)ccn3c2=O)cc1	128 °C
COc1ccc(CC(=O)NCCc2cc3c(cc2C)CCC3)cc1OC	144 to 145 °C
COc1cc2[nH]c(C)c(CCN3CCN(NC(=O)c4ccc(F)cc4)CC3)c2cc1OC	116 to 119 °C
COCCn1c2cc(OCCCO)c(OC)cc2c2c3c(c(-c4ccccc4Cl)cc21)C(=O)NC3=O	251 to 257 °C
CCNC(=S)NCCSCc1[nH]cnc1C	140 to 141 °C
CCn1cc(C(=O)O)c(=O)c2c(C)c(F)c(F)c(F)c21	203 to 204 °C
COc1cc2c(cc1OC)C(O)(CN)CCC2 (centres undefined)	107 to 109 °C
CC(=O)OC1CSC(Oc2ccc3ccn(C(=O)OC(C)(C)C)c3c2)C(OC(C)=O)C1OC(C)=O (centres undefined)	147 to 158 °C
Cc1cc(NC(=O)NC(=O)c2c(Cl)cccc2Cl)cnc1-c1ccccc1	202 to 205 °C
CC(C)N1C(=O)c2cnc(-c3ccccc3)nc2N(C(=O)CN2CCCCC2)c2ccccc21	152 to 154 °C
N#Cc1c(N2CCCCC2)cc(-c2ccc3ccccc3c2)c2c1C(=O)c1ccccc1-2	182 to 184 °C
O=CNNc1ccc(NC(=S)Nc2ccccc2)cc1	188 °C
Cc1cc2c(cc1N)OCO2	88 to 89 °C
O=c1[nH]c2cc(Cl)ccc2c(O)c1-c1ccc(Cl)cc1	> 300 °C
O=S(=O)(Nc1cccc(C(=NO)c2cccnc2)c1)c1ccc(Cl)cc1	170 °C
COC(=O)CONC(=O)c1c(Cl)ccc(Cl)c1OC	102 to 105 °C
COc1ccc2c(c1)N(CCCCl)c1cccc(S(=O)(=O)N(C)C)c1S2	124 to 126 °C
CC(=O)NC1(c2ccc(CN3CCN(c4nccs4)CC3)cc2)CC1	184 to 185 °C
CC(=O)c1ccc2c(c1)C1(c3ccccc3-c3ccccc31)c1ccccc1-2	225 °C
CNC(=O)c1ccc2ccccc2c1	108 to 109 °C
CN1CCC(OC(=O)COC(=O)c2ccccc2Nc2ccnc3c(C(F)(F)F)cccc23)(c2ccccc2)CC1	144 to 145 °C

SMILES	melting point
COc1ccc2c(c1OC)CCC1=C2CCC(=O)N1	231 °C
Cc1cc(C#N)c(C)c(C(=O)Nc2ccc(F)c(C)n2)n1	201 °C
Cn1c(=O)n(CC(=O)N(CCO)c2ccccc2)c2cnc(-c3ccccc3)nc21	231 to 233 °C
CCCCc1cc(C(=O)O)ncc1C(=O)O	239 °C
CCCCCCN(C)c1ccc(C=C2SC(=S)N(Cc3nnn[nH]3)C2=O)cc1	198 to 200 °C
O=C1CCC(c2ccccc2F)c2ccccc2N1 (centres undefined)	210 to 212 °C
N=C(N)NC(=O)c1cn(-c2ccnc3ccccc23)c2ncccc12	164 °C
COc1cc(/C=C/C(=O)CC(=O)/C=C/c2cccc(O)c2OC)ccc1O	152 to 155 °C
CCCc1cc(C(=O)O)ccc1OCCCCCCc1cccc(O)c1O	123 to 124 °C
CC(C)(C)C(O)C(NC(=O)c1ccccc1)n1ccnc1 (centres undefined)	143 °C
COc1ccc2cc(CC(N)=O)ccc2c1	234 to 236 °C
CC(C)C[C@H](NC(=O)NCc1ccccc1)C(=O)N[C@@H](C(C)C)[C@@H](O)c1c(-c2ccccc2)c1=O	160 °C
O=C1NC(=C2CCC2)Sc2ccccc21	147 to 149 °C
COCNC(=O)ON=C1SCOC1C (centres undefined)	78 to 79 °C
O=C(NN1CCCCC1)c1nn(-c2ccc(Cl)cc2Cl)c(-c2ccc(Cl)cc2)c1COCCO	194 °C
CNC(=O)c1sc(C(C)(C)C)cc1NC(=O)Nc1ccc(C(C)C)cc1	113 to 120 °C
ClCc1coc(C2=Cc3ccccc3CC2)n1	73 to 74 °C
Cc1nc(NCCc2ccccc2)sc1-c1ccnc(Nc2ccc(N3CCN(Cc4ccccc4)CC3)cc2)n1	191 to 192 °C
CCOC(=O)C(C(=O)Nc1ccc(Br)cc1C)[N+](=O)[O-] (centres undefined)	126 to 129 °C
CC1=C(C(=O)OCCCN(C)C)C(c2ccccc2)C2=C(COC2=O)N1 (centres undefined)	112 to 115 °C
COc1ccc(-c2sc3cc(O)ccc3c2Oc2ccc(OCCN3CCCCC3)cc2)cc1	157 °C
CCOCOc1cc(C)ccc1-c1cc(-c2cccc([N+](=O)[O-])c2)c(C#N)c(NC(=O)c2cccs2)n1	121 to 123 °C
NS(=O)(=O)c1cccc2ccccc12	152 to 153 °C
Oc1ccc(-c2n[nH]c3ccccc23)cc1	189 to 190 °C
COc1ccc(CN2C(=O)[C@H](CO)[C@H]2S(=O)(=O)C(C)(C)C)c(OC)c1	124 to 125 °C

SMILES	melting point
COc1cc2c(cc1OC)CC(=O)N(CCCN(C)C1CCc3cc(Cl)c(Cl)cc3C1)CC2 (centres undefined)	130 °C
CCCCCCC(C)(C)c1ccc([C@@H]2CC(=O)C[C@@H](C#N)C2)c(OCc2ccccc2)c1 (relative stereo)	79 °C
COc1cccc2cc(C3CCN(C)CC3)oc12	74 to 75 °C
CC(=O)NCCC1CCc2ccc3nn(C)c(C)c3c21 (centres undefined)	146 to 149 °C
NC(=O)N(O)CCNC(=O)Cc1ccccc1Nc1c(Cl)cccc1Cl	187 to 189 °C
O=C(NC1CCCCC1)NS(=O)(=O)c1ccc2c(c1)CCN(C(=O)N1CCCCCC1)CC2	155 to 156 °C
Cc1cc2c(cc1C)-n1cnnc1C=C(c1ccc(-n3c(C)nc4cnccc43)cc1)N2	302 to 304 °C
Cc1ccc([C@H](CC(=O)O)NC(=O)Nc2c(N)cc(C)n(Cc3ccccc3Cl)c2=O)cc1	145 to 147 °C
COC(=O)C(=O)NS(=O)(=O)Cc1ccccc1	117 to 122 °C
Cc1cccc(NC(=O)NCC(=O)N2[C@@H](C(=O)OC(C)(C)C)CC[C@H]2c2ccccc2)c1 (racemic)	156 °C
O=C1c2ccccc2C(=O)N1CCCSc1ncco1	101 °C
CCc1nc2c(N)nc3ccccc3c2n1CCC1(O)CC1	199 to 200 °C
Cc1ccc(NCC2CCN(C3CCOCC3)CC2)c(C(=O)Nc2ccc(Cl)cn2)c1	178 to 182 °C
Cc1ccc(-c2ccccc2C(=O)Nc2ccc(C(=O)N3C[C@@H]4CCCN4C(=S)c4ccccc43)cc2)cc1	140 to 145 °C
CCCCCn1c(C)cc(=O)c(C(=O)Nc2ccccc2)c1-c1ccccc1	164 to 166 °C
CN1C=CC(c2ccccc2)=C(O)C1	154 to 157 °C
CCC(C)(C)Nc1c(NCc2ccc(F)cc2F)c(=O)c1=O	242 to 244 °C
CCOC(=O)C1=C(CO)NC(CO)=C(C(=O)OCC)C1c1ccccc1Cl	190 to 191 °C
CC1CC(=O)NN=C1c1ccc(N2CCN(CCCCN)CC2)c([N+](=O)[O-])c1 (centres undefined)	145 to 146 °C
CN(C(=O)CCS(C)(=O)=O)c1cn(-c2cccnc2)nc1Cl	90 to 91 °C
CC(C)(C)c1cccc(C[C@H]2NC(=O)O[C@H]2c2cccc(Cl)c2)c1 (racemic)	136 to 137 °C
COc1ccc(CC(C(=O)O)S(C)(=O)=O)cc1C(=O)NCc1ccc(C(F)(F)F)cc1 (centres undefined)	158 to 159 °C
COC(=O)c1ccc(-c2nc(-c3cccc(OC(F)(F)F)c3)cs2)cc1	132 to 134 °C
O=C1CCC(N2C(=O)c3cccc(CNC(=O)c4ccccc4)c3C2=O)C(=O)N1 (centres undefined)	227 to 229 °C
